The text below walks through data of patent US8138220B2, “[2-(6-fluoro-1H-indol-3-ylsulfanyl)benzyl]methyl amine for the treatment of affective disorders” (H. Lundbeck A/S, priority 2006, dated 2012).

SMILES strings stand for the structures.

The test system of one series is Male BALB/cByJ mice. Briefly: Mouse marble burying. The conditions noted are these: mice, 0.625, 1.25 and 5 mg/kg s.c., 30 min before 30-minute test. The format is in vivo. How it is done: (§1) In all experiments, animals were maintained on a 12:12 light-dark cycle with lights on at 0600 h. Food and water were available ad libitum
For rodents, burying functions as a defensive behavior, used to lessen the intensity of a threat or the animal's vulnerability to it. Researchers have investigated defensive burying behaviour using a variety of threatening objects such as electrified prods and unpleasant tasting foods and liquids. Benign objects such as marbles and food pellets also elicit burying behaviour. Mice probably bury harmless objects because they are novel, and are therefore perceived as threatening. Acute administration of both anxiolytic and antidepressant drugs reduce the number of marbles buried in this paradigm.
Male BALB/cByJ mice (22-28 g) were housed 5/cage. Two experiments were performed. Mice received vehicle or 0.625, 1.25, or 5 mg/kg (s.c.) Test compound (see example 12). 30 minutes after injection, animals were placed individually in cages containing 20 marbles (2 rows of 10) on top of 1.5 inches of Aspen bedding. After a 30-minute test period, mice were returned to their home cages, and the number of visible marbles (less than ⅔ covered with bedding) were counted and subtracted from 20 to give number of marbles buried.

In another series the test system is Male Wistar rats. Kind of series: Antimanic effect, amphetamine and chlordiazepoxide induced locomotor activity in rats. In kind it is in vivo, rat. The conditions noted are these: for induced locomotor activity: amphetamine 1.2 mg/kg + chlordiazepoxide 10.0 mg/kg; for baseline activity: tested doses. As to the method:
Increased locomotor activity induced by an appropriate combination of amphetamine and chlordiazepoxide is a proposed animal model of mania. The induced locomotor activity can be reversed by Lithium.
(§2) In all experiments, animals were maintained on a 12:12 light-dark cycle with lights on at 06:00 h. Food and water was available ad libitum. Animals were taken to the experimental laboratory in the afternoon the day before the experiment was conducted. All drug doses are listed as mg salt pr. kg. Blood-samples were collected within 30 minutes after the testing was finalised.
Animals: Male Wistar rats weighing 160-175 g were supplied from Harlan, the Netherlands. The animals were housed 4 pr. cage in makrolon cages (20×35 cm) with one plastic house for enrichment. The rats had 5 days adaptation to the animal facility prior to the initiation of the experiment.
Equipment: Makrolon cages (20×35 cm) placed in a U-frame equipped longitudinally with 4 infrared light sources and photocells were used to record the locomotor activity of the animals. The light beams cross the cage 4 cm above the bottom of the cage. Recording of a motility count required interruption of adjacent light beams, thus avoiding counts induced by stationary movements of the rat. A thin layer of standard bedding material coved the bottom of the cage.
Chlordiazepoxide (10.0 mg/kg) was dissolved in 10% hydroxypropyl-beta-cyclodextrin and injected s.c. (5 ml/kg) immediately after the amphetamine injection.

In another series the test system is Male NMRI mice. Briefly: Antimanic effects, sensitized amphetamine response in mice. The format is in vivo, mouse. The conditions noted are these: for induced locomotor activity: amphetamine-sensitised mice, amphetamine challenge 1.25 mg/kg; for baseline activity: tested doses, each alone. As to the method: as §2
Repeated intermittent administration of amphetamine causes development of a sensitised response to a subsequent amphetamine challenge. This phenomenon has been proposed to model the chronic and progressive nature of bipolar disorder.
Animals: Male NMRI mice weighing 19-21 g were supplied from Harlan, the Netherland's. The animals were housed 4 pr. cage in makrolon cages (20×35 cm) with two plastic houses and nesting material for enrichment. The animals had 5 days adaptation to the animal-facility prior to the initiation the experiment.
Equipment: Makrolon cages (20×35 cm) placed in quadrates equipped with 5×8 infrared light sources and photocells spaced by 4 cm were used to record the locomotor activity of the animals. The light beams cross the cage 1.8 cm above the bottom of the cage. Recording of a motility count required interruption of adjacent light beams, thus avoiding counts induced by stationary movements of the mice.
Experimental set-up: The animals were pre-treated with either amphetamine sulphate 2.50 mg/kg (10 ml/kg s.c.) or vehicle for 5 consecutive days. After 11+/−1 days withdrawal period the animals were injected with test-drug or vehicle injection. Lithium chloride was dissolved in distilled water and injected s.c. (6 ml/kg) in dose of 40 mg/kg (0.94 mEq/kg), 30 minutes before testing. Test compound ([2-(6-fluoro-1H-indol-3-ylsulfanyl)benzyl]methyl amine L-(+)-hydrogen tatrate) was dissolved in 10% hydroxypropyl-beta-cyclodextrin and injected s.c. in doses of 0.08 and 0.4 mg/kg 60 minutes before testing. Owing to Test compound's lower affinity to rodent 5HT2A receptor with respect to the human receptor, the tested doses of Test compound was combined with a dose of MDL 100907 ([R-(+)-a-(2,3-dimethoxyphenyl)-1-[2-(4-fluorophenylethyl)]-4-piperidinem ethanol]) that achieves full occupancy of this receptor. 30 minutes before testing the animals were placed in the activity boxes for habituation. After the habituation period the mice were injected with a low dose amphetamine challenge (1.25 mg/kg or saline, 10 ml/kg) and the locomotor activity were measured for 60 minutes. The mice were dosed after the average weight of 16 animals.

The next series can be described thus: Solubility in water. The conditions noted are these: well-defined 1:1 salts, in words. In kind it is physicochemical.
For the next series, the system named is Male C57B1/6 mice. Briefly: Stress-induced hyperthermia. The format is in vivo, mouse. The conditions noted are these: chlordiazepoxide 10 mg/kg, one hour before. How it is done: as §1
The stress-induced hyperthermia (SIH) test is based upon the principle that, like other mammals, mice have a natural hyperthermic response to stress. In this paradigm, the stressor is having the rectal temperature taken. This physiological response is considered to reflect the anxiety level of the animal, and is attenuated by pretreatment with anxiolytic drugs such as benzodiazepines.
Male C57B1/6 mice (18-21 g) were housed 5/cage until 1 day before the experiment, at which time they were brought to the testing room and singly-housed. Testing was conducted over a two-day period from 9-12 am. Mice received vehicle, chlordiazepoxide (10 mg/kg), or 0.02, 0.08, or 0.32 mg/kg Test compound (s.c.). One hour later, core temperature was measured with a rectal probe (T1) and each animal was returned to its cage. Ten minutes later, a second reading was obtained (T2). The difference between the two readings (T2−T1) was calculated as the measure of stress-induced hyperthermia.

On to `CNCc1ccccc1Sc1c[nH]c2cc(F)ccc12.O=C(O)C(O)C(O)C(=O)O` [beta form of the L(+) hydrogen tartrate salt] [[2-(6-Fluoro-1H-indol-3-ylsulfanyl)-benzyl]-methyl-amine L-(+)-hydrogen tartrate], for which the “water absorbed when exposed to high relative humidity” value was “about 0.6%”.
As to `CNCc1ccccc1Sc1c[nH]c2cc(F)ccc12.O=C(O)C(O)C(O)C(=O)O` [alpha form of the L(+) hydrogen tartrate salt] [[2-(6-Fluoro-1H-indol-3-ylsulfanyl)-benzyl]-methyl-amine L-(+)-hydrogen tartrate], the “water absorbed when exposed to high relative humidity” value was < 0.1%.
Consider `CNCc1ccccc1Sc1c[nH]c2cc(F)ccc12.O=C(O)C(O)C(O)C(=O)O` [Test compound, [2-(6-fluoro-1H-indol-3-ylsulfanyl)benzyl]methyl amine L-(+)-hydrogen tatrate], for which the “numbers of marbles buried” value in the series on Male BALB/cByJ mice is “significantly and equivalently reduced”. Besides, the induced locomotor activity result in the series on Male Wistar rats (Test compound 0.4 mg/kg combined with MDL 100907 0.3 mg/kg) is “significant attenuation”; in the series with Male Wistar rats (Test compound 0.4 mg/kg s.c. alone), “tendency to increase the locomotor activity induced activity, but not significantly”; in the series on Male NMRI mice (Test compound 0.08 mg/kg and 0.4 mg/kg s.c. alone), “no effect”. Besides, the baseline activity entry was “no effect” in the series with Male Wistar rats and “no significant effect” with Male NMRI mice (mice). Moreover, the “baseline activity in saline pre-treated animals” value in the series with Male NMRI mice (mice, Test compound 0.08 and 0.4 mg/kg combined with MDL 100907 0.3 mg/kg) is “significantly lowered”.
As for `CC(C)(O)C(=O)O` [2-hydroxy isobutyric acid], the solubility result in “Solubility in water” is recorded as “relatively high solubility”.
In the case of `CNC1=Nc2ccc(Cl)cc2C(c2ccccc2)=[N+]([O-])C1` [CDP, chlordiazepoxide, reference compound], the “stress-induced hyperthermia (T2−T1)” value with Male C57B1/6 mice is given as “significantly reduced”.
Turning to `COc1cccc([C@H](O)C2CCN(CCc3ccc(F)cc3)CC2)c1OC` [MDL 100907, [R-(+)-a-(2,3-dimethoxyphenyl)-1-[2-(4-fluorophenylethyl)]-4-piperidinemethanol], reference compound], the induced locomotor activity entry is given as “significantly reversed” in the series on Male Wistar rats (MDL 100907 0.3 mg/kg) and “significantly decreased” in the series with Male NMRI mice (MDL 100907 0.3 mg/kg). Moreover, the baseline activity entry in the series with Male Wistar rats is given as “no effect”; in the series with Male NMRI mice (mice), “no significant effect”.
